Measured values: ChEMBL document CHEMBL1629569, “Widespread dissemination of aminoglycoside resistance genes armA and rmtB in Klebsiella pneumoniae isolates in Taiwan producing CTX-M-type extended-spectrum beta-lactamases” (2009)
Values after ≈ are worked out from the molar mass of the structure shown.

Assays:
Assay type in all cases: functional
Klebsiella pneumoniae [1] = test: Antimicrobial activity against ESBL-producing Klebsiella pneumoniae clinical isolate assessed as resistant isolates
Klebsiella pneumoniae [2] = test: Antimicrobial activity against ESBL-producing Klebsiella pneumoniae clinical isolate by broth microdilution method
Klebsiella pneumoniae [3] = test: Antimicrobial activity against ESBL-producing Klebsiella pneumoniae clinical isolate assessed as susceptible isolates

| Compound | Activity (Klebsiella pneumoniae [1]) [isolates] | MIC50 (Klebsiella pneumoniae [2]) [mg/L] | MIC90 (Klebsiella pneumoniae [2]) [mg/L] | Activity (Klebsiella pneumoniae [3]) |
| --- | --- | --- | --- | --- |
| CO/N=C(\C(=O)N[C@@H]1C(=O)N2C(C(=O)O)=C(COC(C)=O)CS[C@H]12)c1csc(N)n1 [CEFOTAXIME] | 146 | 64 (≈ 141 µM) | 64 (≈ 141 µM) | 12 isolates |
| C[C@@H](O)[C@H]1C(=O)N2C(C(=O)O)=C(SCCNC=N)C[C@H]12 [IMIPENEM ANHYDROUS] | 2 | 0.25 (≈ 0.835 µM) | 2 (≈ 6.68 µM) | 230 isolates |
| CC(C)(O/N=C(\C(=O)N[C@@H]1C(=O)N2C(C(=O)[O-])=C(C[n+]3ccccc3)CS[C@H]12)c1csc(N)n1)C(=O)O [CEFTAZIDIME] | 158 | 32 (≈ 58.5 µM) | 32 (≈ 58.5 µM) | 38 isolates |
| CC1(C)S[C@@H]2[C@H](NC(=O)[C@H](N)c3ccccc3)C(=O)N2[C@H]1C(=O)O [AMPICILLIN] | 235 | > 64 | > 64 | 0 isolates |
| NCC[C@H](O)C(=O)N[C@@H]1C[C@H](N)[C@@H](O[C@H]2O[C@H](CN)[C@@H](O)[C@H](O)[C@H]2O)[C@H](O)[C@H]1O[C@H]1O[C@H](CO)[C@@H](O)[C@H](N)[C@H]1O [AMIKACIN] | 102 | 32 (≈ 54.6 µM) | 64 (≈ 109 µM) | 106 isolates |
| GENTAMICIN | – | 16 | 16 | 21% |
| CO[C@@]1(NC(=O)Cc2cccs2)C(=O)N2C(C(=O)O)=C(COC(N)=O)CS[C@@H]21 [CEFOXITIN] | 95 | 16 (≈ 37.4 µM) | 32 (≈ 74.9 µM) | 102 isolates |
